The values that follow come from patent US12240860B2, “Heterobicyclic carboxylic acids and salts thereof” (SHENZHEN IONOVA LIFE SCIENCE CO., LTD., priority 2018, dated 2025).

The nature of this data set: DVS (Dynamic Vapor Sorption) moisture sorption/desorption. Type of data set: physicochemical. The conditions noted are these: 25° C. As to the method: DVS (Dynamic Vapor Sorption)
Around 20 mg of samples were used to test its moisture sorption/desorption profiles at 25° C. under 0%˜95%˜0% relative humidity (RH) cycle with the following parameters:
Equilibrium: dm/dt: 0.01%/min.
RH (%) measurement step scope: 0%95%0%; RH (%) measurement step: 5%

SMILES strings stand for the structures.

For `Cc1sc2ccn(Cc3ccc(C(F)(F)F)cc3)c2c1C(=O)NC1(c2ccc(C(=O)O)cc2)CC1` [C003 free acid, 4-(1-{[2-Methyl-4-(4-trifluoromethyl-benzyl)-4H-thieno[3,2-b]pyrrole-3-carbonyl]-amino}-cyclopropyl)-benzoic acid], the “moisture at 80% RH (DVS)” value turned out to be 3.175%. The “Hygroscopicity Classification (DVS)” value (80% RH) is given as “hygroscopic”.
